Experimental data taken from BindingDB's records for doi:10.1021/jm981033g (University of Antwerp (Uia), 1999).

Experiments:
[1] = Effect on the activity of prolyl endopeptidase (PEP) was evaluated at 1 mM concentration for DPP IV
[2] = Effect on the activity of prolyl endopeptidase (PEP) was evaluated at the IC50 concentration for DPP IV and

For `CC(=O)Nc1cccc(OP(=O)(Oc2cccc(NC(C)=O)c2)C2CCCN2C(=O)C2CCCN2)c1` (configuration not stated) [2-{2-[Bis-(3-acetylamino-phenoxy)-phosphoryl]-pyrrolidine-1-carbonyl}-pyrrolidinium; chloride], the IC50 [1] was 50 µM and the IC50 [2] was 89 µM.
